Tests used:
[1] = target: T1, Cbl-b (aa36-427) (Homo sapiens, UniProt Q13191); test: Co-expressed Cbl-b with BirA biochemical assay (CBLB/E2-Ub binding, HTRF); settings: 0.6 nM Cbl-b co-expressed with BirA, HTRF; read-out: co-express CBLB/E2-Ub-binding assay IC50
T1 construct: Cbl-b (aa36-427, in-house); made in house
From the text: (§1) The assay in the absence of a Cbl-b/Cbl inhibitor, where phosphorylation of Cbl-b/Cbl by the Src kinase allows UbcH5B-Ub to bind to Cbl-b/Cbl and brings the Bodipy-Fluorescein tagged ubiquitin in proximity to the streptavidin-terbium bound to the N-terminal biotinylated Avi-tagged Cbl-b/Cbl. […] The lack of a FRET signal indicates Cbl-b/Cbl is inhibited by the Cbl-b/Cbl inhibitor.

[2] = target: T2, Cbl (aa49-434) (Homo sapiens, UniProt P22681); test: Co-expressed Cbl with BirA biochemical assay (CBL/E2-Ub binding, HTRF); settings: 0.6 nM Cbl co-expressed with BirA, read-out: co-express CBL/E2-Ub-binding assay IC50
T2 construct: Cbl (aa49-434, in-house); made in house
T2 sequence (P22681 49-434): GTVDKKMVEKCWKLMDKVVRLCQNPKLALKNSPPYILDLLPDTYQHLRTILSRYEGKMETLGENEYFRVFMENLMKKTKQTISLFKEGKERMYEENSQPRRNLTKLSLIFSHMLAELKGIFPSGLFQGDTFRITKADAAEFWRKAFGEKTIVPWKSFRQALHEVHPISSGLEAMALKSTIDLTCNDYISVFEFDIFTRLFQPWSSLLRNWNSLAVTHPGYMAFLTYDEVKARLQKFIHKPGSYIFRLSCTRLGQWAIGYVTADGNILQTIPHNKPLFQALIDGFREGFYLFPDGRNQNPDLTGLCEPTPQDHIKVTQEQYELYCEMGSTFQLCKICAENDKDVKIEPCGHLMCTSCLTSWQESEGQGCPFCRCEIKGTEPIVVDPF
From the text: as §1

T1 sequence (Q13191 36-427): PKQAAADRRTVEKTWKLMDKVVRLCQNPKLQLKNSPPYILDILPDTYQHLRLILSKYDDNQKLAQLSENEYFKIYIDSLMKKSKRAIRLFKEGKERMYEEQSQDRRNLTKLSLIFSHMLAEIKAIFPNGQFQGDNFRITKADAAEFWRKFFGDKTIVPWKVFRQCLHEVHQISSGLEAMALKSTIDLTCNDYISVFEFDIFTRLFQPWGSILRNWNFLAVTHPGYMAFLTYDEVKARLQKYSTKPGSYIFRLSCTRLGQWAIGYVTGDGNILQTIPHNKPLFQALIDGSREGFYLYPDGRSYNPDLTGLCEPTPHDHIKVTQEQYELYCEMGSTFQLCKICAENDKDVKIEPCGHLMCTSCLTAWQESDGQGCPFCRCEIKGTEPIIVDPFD

Compound | IC50 [1] [nM] | IC50 [2] [nM]
Cn1cnnc1[C@]1(c2cccc(NC(=O)c3cc(CNCC4CCC4)c4c(n3)C(C)(C)CN4)c2)C[C@H](C)C1 [Compound C49, 7-(((cyclobutylmethyl)amino)methyl)-3,3-dimethyl-N-(3-((1s, 3s)-3-methyl-1-(4-methyl-4H-1,2,4-triazol-3-yl)cyclobutyl)phenyl)-2,3-dihydro-1H-pyrrolo[3,2-b]pyridine-5-carboxamide] | 2 | 5.9
Cn1cnnc1[C@]1(c2cccc(NC(=O)c3cc(CNC4(C)CC4)cn4c(F)cnc34)c2)C[C@H](CC#N)C1 [Compound A17, N-(3-((1s, 3s)-3-(cyanomethyl)-1-(4-methyl-4H-1,2,4-triazol-3-yl)cyclobutyl)phenyl)-3-fluoro-6-(((1-methylcyclopropyl)amino)methyl)imidazo[1,2-a]pyridine-8-carboxamide] | 0.8 | 20.7
C[C@H](NCc1cc(C(=O)Nc2cccc([C@]3(c4nncn4C)C[C@@H](C)C3)c2)nc2c(F)c[nH]c12)C1CCC1 [Compound B38, 7-((((S)-1-cyclobutylethyl)amino)methyl)-3-fluoro-N-(3-((1s,3R)-3-methyl-1-(4-methyl-4H-1,2,4-triazol-3-yl)cyclobutyl)phenyl)-1H-pyrrolo[3,2-b]pyridine-5-carboxamide] | 0.5 | 1.3
Cn1cnnc1[C@]1(c2cccc(NC(=O)c3cc(CNC4(C)CC4)cn4ccnc34)c2)C[C@H](C)C1 [Compound A16, N-(3-((1s, 3s)-3-methyl-1-(4-methyl-4H-1,2,4-triazol-3-yl)cyclobutyl)phenyl)-6-(((1-methylcyclopropyl)amino)methyl)imidazo[1,2-a]pyridine-8-carboxamide] | 0.9 | 5.9
C[C@H]1CCCN(Cc2cc(C(=O)Nc3cccc([C@]4(c5nncn5C)C[C@@H](CC#N)C4)c3)nc3cn[nH]c23)C1 [Compound B8, N-(3-((1s,3R)-3-(cyanomethyl)-1-(4-methyl-4H-1,2,4-triazol-3-yl)cyclobutyl)phenyl)-7-(((S)-3-methylpiperidin-1-yl)methyl)-1H-pyrazolo[4,3-b]pyridine-5-carboxamide] | 1.8 | 21
Cc1cnc2c(C(=O)Nc3cccc([C@]4(c5nncn5C)C[C@@H](C)C4)c3)cc(CN3CC[C@H](F)[C@H](C)C3)cn12 [Compound A46, 6-(((3R,4S)-4-fluoro-3-methylpiperidin-1-yl)methyl)-3-methyl-N-(3-((1s,3S)-3-methyl-1-(4-methyl-4H-1,2,4-triazol-3-yl)cyclobutyl)phenyl)imidazo[1,2-a]pyridine-8-carboxamide] | 1.6 | 5.9
C[C@H]1CCCN(Cc2cc(C(=O)Nc3cccc([C@]4(c5nncn5C)C[C@@H](CC#N)C4)c3)nc3c2OCC3(C)C)C1 [Compound C10, 3,3-dimethyl-7-{[(3S)-3-methylpiperidin-1-yl]methyl}-N-{3-[(1s, 3s)-3-(cyanomethyl)-1-(4-methyl-1,2,4-triazol-3-yl)cyclobutyl]phenyl}-2H-furo[3,2-b]pyridine-5-carboxamide] | 2.3 | 26.6
Cn1cnnc1C[C@]1(c2cccc(NC(=O)c3cc(CNCC4CCCC(F)(F)C4)c4c(n3)C(C)(C)CC4)c2)C[C@H](C#N)C1 (some centres unmarked) [Compound C15, N-(3-((1r, 3r)-3-cyano-1-((4-methyl-4H-1,2,4-triazol-3-yl)methyl)cyclobutyl)phenyl)-4-((((3,3-difluorocyclohexyl)methyl)amino)methyl)-7,7-dimethyl-6,7-dihydro-5H-cyclopenta[b]pyridine-2-carboxamide] | 1.8 | 5.2
Cn1cnnc1[C@]1(c2cccc(NC(=O)c3cc(CNCC4CCC4)cn4c(F)cnc34)c2)C[C@H](C)C1 [Compound A52, 6-(((cyclobutylmethyl)amino)methyl)-3-fluoro-N-(3-((1s, 3s)-3-methyl-1-(4-methyl-4H-1,2,4-triazol-3-yl)cyclobutyl)phenyl)imidazo[1,2-a]pyridine-8-carboxamide] | 0.8 | 3.4
Cn1cnnc1[C@]1(c2cccc(NC(=O)c3cc(CNCC4(C)CCCC4)cn4c(Cl)cnc34)c2)C[C@H](CC#N)C1 [Compound A28, 3-chloro-N-(3-((1s, 3s)-3-(cyanomethyl)-1-(4-methyl-4H-1,2,4-triazol-3-yl)cyclobutyl)phenyl)-6-((((1-methylcyclopentyl)methyl)amino)methyl)imidazo[1,2-a]pyridine-8-carboxamide] | 1 | 2.4
C[C@H](NCc1cc(C(=O)Nc2cncc([C@]3(c4nncn4C)C[C@@H](C)C3)c2)c2ncc(Cl)n2c1)C1CC1 [Compound A77, 3-chloro-6-((((S)-1-cyclopropylethyl)amino)methyl)-N-(5-((1s,3R)-3-methyl-1-(4-methyl-4H-1,2,4-triazol-3-yl)cyclobutyl)pyridin-3-yl)imidazo[1,2-a]pyridine-8-carboxamide] | 0.4 | 1.2
C[C@@H]1CN(Cc2cc(C(=O)Nc3cccc([C@]4(c5nncn5C)C[C@@H](CC#N)C4)c3)nc3c2NCC3(C)C)CC[C@@H]1F [Compound C47, 7-{[(3R,4S)-4-fluoro-3-methylpiperidin-1-yl]methyl}-3,3-dimethyl-N-{3-[(1s, 3s)-3-(cyanomethyl)-1-(4-methyl-1,2,4-triazol-3-yl)cyclobutyl]phenyl}-1H,2H-pyrrolo[3,2-b]pyridine-5-carboxamide] | 0.7 | 1.2
Cn1cnnc1[C@]1(c2cccc(NC(=O)c3cc(CNC4(C)CCC4)cn4c(F)cnc34)c2)C[C@H](CC#N)C1 [Compound A61, N-(3-((1s, 3s)-3-(cyanomethyl)-1-(4-methyl-4H-1,2,4-triazol-3-yl)cyclobutyl)phenyl)-3-fluoro-6-(((1-methylcyclobutyl)amino)methyl)imidazo[1,2-a]pyridine-8-carboxamide] | 1.2 | 11.1
Cn1cnnc1[C@]1(c2cccc(NC(=O)c3cc(CNC4(C)CC4)c4[nH]cc(Cl)c4n3)c2)C[C@H](CC#N)C1 [Compound B24, 3-chloro-N-(3-((1s, 3s)-3-(cyanomethyl)-1-(4-methyl-4H-1,2,4-triazol-3-yl)cyclobutyl)phenyl)-7-(((1-methylcyclopropyl)amino)methyl)-1H-pyrrolo[3,2-b]pyridine-5-carboxamide] | 0.9 | 17
Cn1cnnc1[C@]1(c2cccc(NC(=O)c3cc(CNCC4(C)CCC4)cn4ccnc34)c2)C[C@H](CC#N)C1 [Compound A30, N-(3-((1s, 3s)-3-(cyanomethyl)-1-(4-methyl-4H-1,2,4-triazol-3-yl)cyclobutyl)phenyl)-6-((((1-methylcyclobutyl)methyl)amino)methyl)imidazo[1,2-a]pyridine-8-carboxamide] | 0.6 | 6.4
CC[C@H](C)NCc1cc(C(=O)Nc2cncc([C@]3(c4nncn4C)C[C@@H](C)C3)c2)c2nccn2c1 [Compound A49, 6-((((S)-sec-butyl)amino)methyl)-N-(5-((1s,3R)-3-methyl-1-(4-methyl-4H-1,2,4-triazol-3-yl)cyclobutyl)pyridin-3-yl)imidazo[1,2-a]pyridine-8-carboxamide] | 3 | 11.9

— US20250163047A1, “HETEROCYCLIC COMPOUNDS, COMPOSITIONS THEREOF, AND METHODS OF TREATMENT THEREWITH” (BeiGene, Ltd., priority 2022, published 2025)
